Laboratory results from US6916797B2, “α-arylethylpiperazine derivatives as neurokinin antagonists” (UCB, S.A., priority 2000, dated 2005).

What follows are compounds tested against NK1 receptors (Homo sapiens, UniProt P25103) (assay: Binding of [4,5-3H-Leu10] substance P to human recombinant NK1 receptors expressed in CHO cell membranes). Settings: pIC50 = -log IC50, concentration inhibiting by 50% the specific binding of [4,5-3H] substance P; tested as the free base/salt given in c1.
Parameters: host or cells: CHO cells
Protocol: The following test was designed to assess the affinity of test substances for human recombinant NK1 receptors expressed in Chinese Hamster Ovarian (CHO) cells.
CHO cells expressing the human recombinant NK1 receptor are used. The cells were obtained from Euroscreen (Brussels, Belgium).
Cells expressing the human NK1 receptor are routinely cultured in 175 cm2 flasks containing 75 ml of medium F12 (Ham) enriched with 2 mmol/l L-glutamine, 100 IU/ml penicilline, 100 μg/ml streptomycine, 1% sodium pyruvate, 2.5 μg/ml fungizone amphotericin B, 400 μg/ml geneticin and supplemented with 10% foetal calf serum. […] When subcultured, the cells are seeded at a concentration of 50,000 cells/cm2.
Confluent cells are gently scraped and resuspended in 25 ml of phosphate buffered saline without calcium and magnesium. The cellular suspension is centrifuged at 1500×g for 3 min (4° C.). The cell pellet is homogenized in a 15 mmol/l Tris-HCl (pH 7.5) buffer, 2 mmol/l MgCl2, 0.3 mmol/l EDTA, 1 mmol/l EGTA. The crude membrane fraction is collected by two consecutive centrifugation steps at 40,000×g for 25 min (4° C.). The final pellet is resuspended in 20 mmol/l Tris-HCl (pH 7.4), 250 mmol/l sucrose buffer at a protein concentration ranging from 2 to 6 mg/ml and stored in liquid nitrogen. • 1.2.2. Test Design
The inhibition constant (Ki) is determined using increasing concentrations of the test substance. The concentration range usually encompasses 6 log units with variable steps (0.3 to 1 log). Assays are performed in mono- or duplicate.
Membranes are incubated at 25° C. for 60 min in 0.5 ml of a 50 mmol/l Tris-HCl buffer (pH 7.4) containing 2 mmol/l MgCl2, 100 μg/ml bacitracine, 0.1 to 0.4×10^−9 mol/l of [4,5^3H-Leu^10] substance P (specific activity>100 Ci/mmol) and increasing concentrations of the test substance. […] Membrane-bound and free radioligands are separated by rapid filtration through glass fiber filters (equivalent to Whatman GF/C or GF/B; VEL, Belgium) presoaked in 0.1% polyethyleneimine to reduce non specific binding. Samples and filters are rinsed by at least 6 ml of 50 mmol/l Tris-HCl (pH 7.4) buffer.
Initial values for the different variables may be provided by the experimenter.

NK1 receptors, sequence (P25103 whole entry): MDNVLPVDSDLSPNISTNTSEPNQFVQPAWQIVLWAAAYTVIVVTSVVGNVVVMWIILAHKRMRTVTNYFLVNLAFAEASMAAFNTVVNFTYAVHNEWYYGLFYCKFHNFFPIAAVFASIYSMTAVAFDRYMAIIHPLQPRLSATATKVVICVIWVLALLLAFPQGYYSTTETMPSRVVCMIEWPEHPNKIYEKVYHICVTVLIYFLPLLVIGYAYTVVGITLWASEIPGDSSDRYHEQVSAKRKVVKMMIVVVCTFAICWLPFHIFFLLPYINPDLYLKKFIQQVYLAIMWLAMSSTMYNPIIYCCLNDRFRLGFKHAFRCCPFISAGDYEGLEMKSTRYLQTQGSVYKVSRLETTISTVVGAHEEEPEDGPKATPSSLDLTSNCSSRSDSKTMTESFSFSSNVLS

Row | SMILES | IC50 [nM]
1 | NC(=O)COCCN1CCN([C@@H](COCc2cc(C(F)(F)F)cc(C(F)(F)F)c2)c2ccccc2)CC1 [Compound 149] | 63.1
2 | NC(=O)CN1CCN(C(COCc2cc(C(F)(F)F)cc(C(F)(F)F)c2)c2ccccc2)CC1 (stereo not drawn) [Compound 143] | 39.8
3 | NC(=O)CCN1CCN(C(COCc2cc(C(F)(F)F)cc(C(F)(F)F)c2)c2ccccc2)CC1 (stereo not drawn) [Compound 146] | 15.8
4 | CC(OCC(c1ccccc1)N1CCN(CC(=O)O)CC1)c1cc(C(F)(F)F)cc(C(F)(F)F)c1 (single isomer, unassigned) [Compound 273] | 3.16
5 | OCCN1CCN(C(COCc2cc(C(F)(F)F)cc(C(F)(F)F)c2)c2ccccc2)CC1 (racemic) [Compound 157, 2-{4-[2-(3,5-Bis-trifluoromethyl-benzyloxy)-1-phenyl-ethyl]-piperazin-1-yl}-ethanol] | 6.31
6 | COC(=O)CCCCN1CCN(C(COCc2cc(C(F)(F)F)cc(C(F)(F)F)c2)c2ccccc2)CC1 (racemic) [Compound 139] | 6.31
7 | COc1cc(COCCN2CCN(C(COCc3cc(C(F)(F)F)cc(C(F)(F)F)c3)c3ccccc3)CC2)cc(OC)c1OC (racemic) [Compound 175] | 5.01
8 | FC(F)(F)c1cc(COCC(c2ccccc2)N2CCN(Cc3ccccn3)CC2)cc(C(F)(F)F)c1 (racemic) [Compound 170] | 50.1
9 | CCOC(=O)CCCN1CCN(C(COCc2cc(C(F)(F)F)cc(C(F)(F)F)c2)c2ccccc2)CC1 (racemic) [Compound 138, 4-{4-[2-(3,5-Bis-trifluoromethyl-benzyloxy)-1-phenyl-ethyl]-piperazin-1-yl}-butyric acid ethyl ester] | 10
10 | CC(C)OC(=O)CCCCCN1CCN(C(COCc2cc(C(F)(F)F)cc(C(F)(F)F)c2)c2ccccc2)CC1 (racemic) [Compound 142] | 7.94
11 | CC(C)OC(=O)CN1CCN([C@H](COCc2cc(C(F)(F)F)cc(C(F)(F)F)c2)c2ccccc2)CC1 [Compound 136] | 79.4
12 | CCOP(=O)(CCN1CCN([C@H](COCc2cc(C(F)(F)F)cc(C(F)(F)F)c2)c2ccccc2)CC1)OCC [Compound 164] | 39.8
13 | N#CCCCCN1CCN(C(COCc2cc(C(F)(F)F)cc(C(F)(F)F)c2)c2ccccc2)CC1 (racemic) [Compound 152] | 12.6
14 | NC(=O)COCCN1CCN([C@H](COCc2cc(C(F)(F)F)cc(C(F)(F)F)c2)c2ccccc2)CC1 [Compound 148] | 39.8
15 | FC(F)(F)c1cc(COCC(c2ccccc2)N2CCN(CCN3CCOCC3)CC2)cc(C(F)(F)F)c1 (racemic) [Compound 162] | 7.94
16 | NC(=O)CN1CCN(C(COCc2cc(C(F)(F)F)cc(C(F)(F)F)c2)c2cccc3ccccc23)CC1 (racemic) [Compound 191] | 63.1
17 | COc1cc(CN2CCN([C@@H](COCc3cc(C(F)(F)F)cc(C(F)(F)F)c3)c3ccccc3)CC2)cc(OC)c1OC [Compound 174] | 39.8
18 | NC(=O)CCCN1CCN(C(COCc2cc(C(F)(F)F)cc(C(F)(F)F)c2)c2ccccc2)CC1 (stereo not drawn) [Compound 288, 4-{4-[2-(3,5-Bis-trifluoromethyl-benzyloxy)-1-phenyl-ethyl]-piperazin-1-yl}-butyramide] | 5.01
19 | O=C(CCCCCN1CCN(C(COCc2cc(C(F)(F)F)cc(C(F)(F)F)c2)c2ccccc2)CC1)NO (stereo not drawn) [Compound 315, 6-{4-[2-(3,5-Bis-trifluoromethyl-benzyloxy)-1-phenyl-ethyl]-piperazin-1-yl}-hexanoic acid hydroxyamide] | 5.01

Row | SMILES | IC50 [nM]
20 | N#CCCCN1CCN(C(COCc2cc(C(F)(F)F)cc(C(F)(F)F)c2)c2ccccc2)CC1 (racemic) [Compound 151] | 20
21 | NC(=O)CN1CCN([C@H](COCc2cc(C(F)(F)F)cc(C(F)(F)F)c2)c2ccccc2)CC1 [Compound 144, (S)-2-{4-[2-(3,5-Bis-trifluoromethyl-benzyloxy)-1-phenyl-ethyl]-piperazin-1-yl}-acetamide] | 39.8
22 | O=C1c2ccccc2C(=O)N1CCN1CCN(C(COCc2cc(C(F)(F)F)cc(C(F)(F)F)c2)c2ccccc2)CC1 (racemic) [Compound 171] | 79.4
23 | O=S1(=O)CCN(CCN2CCN(C(COCc3cc(C(F)(F)F)cc(C(F)(F)F)c3)c3ccccc3)CC2)CC1 (racemic) [Compound 161] | 7.94
24 | CCOC(=O)CCCCCN1CCN(C(COCc2cc(C(F)(F)F)cc(C(F)(F)F)c2)c2ccccc2)CC1 (racemic) [Compound 141] | 7.94
25 | COc1cc(COCCN2CCN(C(COCc3cc(C(F)(F)F)cc(C(F)(F)F)c3)c3ccccc3)CC2)cc(OC)c1OC (stereo not drawn) [Compound 176] | 25.1
26 | CC(C)(C)NC(=O)CN1CCN(C(COCc2cc(C(F)(F)F)cc(C(F)(F)F)c2)c2ccccc2)CC1 (racemic) [Compound 293] | 63.1
27 | CN(C(=O)CN1CCN(C(COCc2cc(C(F)(F)F)cc(C(F)(F)F)c2)c2ccccc2)CC1)C(C)(C)C (racemic) [Compound 294] | 12.6
28 | N#CCOCCN1CCN(C(COCc2cc(C(F)(F)F)cc(C(F)(F)F)c2)c2ccccc2)CC1 (racemic) [Compound 155] | 15.8
29 | COc1cc(CN2CCN([C@H](COCc3cc(C(F)(F)F)cc(C(F)(F)F)c3)c3ccccc3)CC2)cc(OC)c1OC [Compound 173] | 25.1
30 | CC(=O)NC(CCN1CCN(C(COCc2cc(C(F)(F)F)cc(C(F)(F)F)c2)c2ccccc2)CC1)c1ccccc1 (stereo not drawn) [Compound 308, N-(3-{4-[2-(3,5-Bis-trifluoromethyl-benzyloxy)-1-phenyl-ethyl]-piperazin-1-yl}-1-phenyl-propyl)-acetamide] | 12.6
31 | COC(=O)CN1CCN(C(COCc2cc(Br)cc(I)c2)c2ccccc2)CC1 (racemic) [Compound 208] | 63.1
32 | NC(=O)CCCCCN1CCN(C(COCc2cc(C(F)(F)F)cc(C(F)(F)F)c2)c2ccccc2)CC1 (racemic) [Compound 150] | 5.01
33 | FC(F)(F)c1cc(COCC(c2ccccc2)N2CCN(c3ccnc4ccccc34)CC2)cc(C(F)(F)F)c1 (stereo not drawn) [Compound 227] | 39.8
34 | N#CCCCCCN1CCN(C(COCc2cc(C(F)(F)F)cc(C(F)(F)F)c2)c2ccccc2)CC1 (racemic) [Compound 156] | 7.94
35 | NC(=O)COCCN1CCN(C(COCc2cc(C(F)(F)F)cc(C(F)(F)F)c2)c2ccccc2)CC1 (racemic) [Compound 147] | 10
36 | NC(=O)CN1CCN([C@@H](COCc2cc(C(F)(F)F)cc(C(F)(F)F)c2)c2ccccc2)CC1 [Compound 145] | 31.6
37 | OCCOCCN1CCN([C@H](COCc2cc(C(F)(F)F)cc(C(F)(F)F)c2)c2ccccc2)CC1 [Compound 158] | 7.94

These compounds were tested on verapamil binding site of the L-type calcium channel (assay: Inhibition of [3H]D888 binding to the verapamil binding site of the L-type calcium channel (rat cerebral cortex membranes)). Settings: 10 μmol/l of test substance.
Protocol: 200-250 g male Sprague-Dawley rats are sacrificed by decapitation. Cerebral cortices are quickly dissected on ice and homogenized in a 20 mmol/l Tris-HCl (pH 7.4) buffer containing 250 mmol/l sucrose (buffer A). The homogenate is centrifuged at 30,000 g for 15 min at 4° C. The resulting crude membrane pellet is resuspended in a 50 mmol/l Tris-HCl (pH 7.4) buffer and incubated 15 min at 37° C. before being centrifuged at 30,000×g for 15 min at 4° C. After two more washes under the same conditions, the final pellet is resuspended in buffer A at a protein concentration ranging from 15 to 25 mg/ml and stored in liquid nitrogen.
Binding experiments are essentially performed according to Reynolds J. et al., J. Pharmacol. Exp. Ther. (1986), 237, 731-738. (1986) with slight modifications.
Membranes (120-175 μg/assay) are incubated at 25° C. for 60 min in 0.5 ml of a 50 mmol/l Tris-HCl buffer (pH 7.4) containing 2 mmol/l MgCl2, 0.2 to 0.4×10-9 mol/l of [^3H]D888 (85 Ci/mmol; Amersham, Belgium) and 10 μmol/l of the test substance. The non specific binding (NSB) is defined as the residual binding observed in the presence 10 μM verapamil. Membrane-bound and -free radioligands are separated by rapid filtration through glass fiber filters (equivalent to Whatman GF/C or GF/B; VEL, Belgium) presoaked in 0.1% polyethyleneimine to reduce non specific binding. Samples and filters are rinsed by at least 6 ml of 50 mmol/l Tris-HCl (pH 7.4) buffer. […] The radioactivity trapped onto the filters is counted by liquid scintillation in a β-counter.
The inhibition of the radioligand specific binding is calculated as follows: [formula] • where BI and Bo represent the binding observed in the presence and absence of the test substance respectively; and • BNS is the non specific binding.
Data analysis is performed by a computerized non linear curve fitting method using a set of equations describing several binding models assuming competitive interactions between ligands (Weiland G. A. and P. B. Molinoff Life Science (1981), 29, 313-330; Molinoff P. et al. (1981) Life Sci., 29, 427-443).

Row | SMILES | % inhibition of [3H]D888 binding to the verapamil binding site of the L-type calcium channel
38 | CC(OCC(c1ccccc1)N1CCN(CC(=O)O)CC1)c1cc(C(F)(F)F)cc(C(F)(F)F)c1 (single isomer, unassigned) [Compound 273] | 0 (0: inhibition < 20%)
39 | N#Cc1ccc(C(COCc2cc(C(F)(F)F)cc(C(F)(F)F)c2)N2CCN(CC(=O)O)CC2)cc1 (stereo not drawn) [Compound 320, {4-[2-(3,5-Bis-trifluoromethyl-benzyloxy)-1-(4-cyano-phenyl)-ethyl]-piperazin-1-yl}-acetic acid] | 0 (0: inhibition < 20%)
